From ChEMBL document CHEMBL1201862, “PubChem BioAssay data set” (2004)
Activity calls are given as the source filed them.

Experiments:
[1] = NIH:OVCAR-3 ovarian cancer cell cytotoxicity, dose response, PAX8 inhibitor project, plate reader, dry powder samples (AID 743044); assay type: functional, cell-based
[2] = IOSE-T80 ovarian epithelial cell cytotoxicity, dose response, cytotoxicity control for PAX8 inhibitor project, plate reader, dry powder samples (AID 743045); assay type: functional, cell-based
[3] = cytotoxicity in OVCAR8 ovarian cancer cells, dose response, PAX8 project, cell-based, plate reader, dry powder samples (AID 743197); assay type: functional; conditions: OVCAR-8
[4] = IGROV1 ovarian cancer cell cytotoxicity, dose response, PAX8 inhibitor project, plate reader, dry powder samples (AID 743043); assay type: functional, cell-based; conditions: IGROV-1
Paired box protein Pax-8 = Paired box protein Pax-8 (Homo sapiens, UniProt Q06710); experiment: inhibitors of PAX8-driven TPO luciferase reporter, dose response, RMG-I cells, cherry-pick (AID 687027); assay type: functional, cell-based;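 further: luciferase reporter driven by Pax8 target thyroperoxidase promoter measured by SteadyGlo luminescence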
Sequence of Paired box protein Pax-8 (Q06710 whole entry): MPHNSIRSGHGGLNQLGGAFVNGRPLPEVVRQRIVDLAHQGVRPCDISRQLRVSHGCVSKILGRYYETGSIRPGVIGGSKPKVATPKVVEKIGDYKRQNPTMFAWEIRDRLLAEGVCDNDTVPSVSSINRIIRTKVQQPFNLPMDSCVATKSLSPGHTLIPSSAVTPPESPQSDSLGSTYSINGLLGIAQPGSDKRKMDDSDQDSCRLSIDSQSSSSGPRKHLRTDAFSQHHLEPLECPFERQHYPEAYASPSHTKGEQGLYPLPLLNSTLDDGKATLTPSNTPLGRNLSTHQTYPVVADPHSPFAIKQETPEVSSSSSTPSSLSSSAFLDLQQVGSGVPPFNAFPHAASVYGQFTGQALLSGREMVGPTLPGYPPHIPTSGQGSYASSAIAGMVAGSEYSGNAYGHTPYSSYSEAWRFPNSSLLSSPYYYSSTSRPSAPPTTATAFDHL

[5] = HEK293 Cytotoxicity Assay Measured in Cell-Based System Using Plate Reader - 7071-01_Inhibitor_Dose_CherryPick_Activity_Set2.; assay type: functional
HEK293 = experiment: HEK293T cell cytotoxicity, dose response, cytotoxicity control, ATP luminescence, cherry-pick samples (AID 687005); assay type: functional, cell-based; conditions: Homo sapiens;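 further: cells exposed to compound for 48 hours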
A549 = experiment: A549 cell toxicity, dose response, cytotoxicity control, plate reader, cherry-pick samples (AID 687028); assay type: functional, cell-based; conditions: Homo sapiens
[6] = molecular target: Metabotropic glutamate receptor 5 (Rattus norvegicus, UniProt P31424); experiment: Identification of a glycine sulfonamide based non-MPEP site positive allosteric potentiator (PAM) of mGlu5 (calcium_assay).; assay type: functional
Sequence of Metabotropic glutamate receptor 5 (P31424 whole entry): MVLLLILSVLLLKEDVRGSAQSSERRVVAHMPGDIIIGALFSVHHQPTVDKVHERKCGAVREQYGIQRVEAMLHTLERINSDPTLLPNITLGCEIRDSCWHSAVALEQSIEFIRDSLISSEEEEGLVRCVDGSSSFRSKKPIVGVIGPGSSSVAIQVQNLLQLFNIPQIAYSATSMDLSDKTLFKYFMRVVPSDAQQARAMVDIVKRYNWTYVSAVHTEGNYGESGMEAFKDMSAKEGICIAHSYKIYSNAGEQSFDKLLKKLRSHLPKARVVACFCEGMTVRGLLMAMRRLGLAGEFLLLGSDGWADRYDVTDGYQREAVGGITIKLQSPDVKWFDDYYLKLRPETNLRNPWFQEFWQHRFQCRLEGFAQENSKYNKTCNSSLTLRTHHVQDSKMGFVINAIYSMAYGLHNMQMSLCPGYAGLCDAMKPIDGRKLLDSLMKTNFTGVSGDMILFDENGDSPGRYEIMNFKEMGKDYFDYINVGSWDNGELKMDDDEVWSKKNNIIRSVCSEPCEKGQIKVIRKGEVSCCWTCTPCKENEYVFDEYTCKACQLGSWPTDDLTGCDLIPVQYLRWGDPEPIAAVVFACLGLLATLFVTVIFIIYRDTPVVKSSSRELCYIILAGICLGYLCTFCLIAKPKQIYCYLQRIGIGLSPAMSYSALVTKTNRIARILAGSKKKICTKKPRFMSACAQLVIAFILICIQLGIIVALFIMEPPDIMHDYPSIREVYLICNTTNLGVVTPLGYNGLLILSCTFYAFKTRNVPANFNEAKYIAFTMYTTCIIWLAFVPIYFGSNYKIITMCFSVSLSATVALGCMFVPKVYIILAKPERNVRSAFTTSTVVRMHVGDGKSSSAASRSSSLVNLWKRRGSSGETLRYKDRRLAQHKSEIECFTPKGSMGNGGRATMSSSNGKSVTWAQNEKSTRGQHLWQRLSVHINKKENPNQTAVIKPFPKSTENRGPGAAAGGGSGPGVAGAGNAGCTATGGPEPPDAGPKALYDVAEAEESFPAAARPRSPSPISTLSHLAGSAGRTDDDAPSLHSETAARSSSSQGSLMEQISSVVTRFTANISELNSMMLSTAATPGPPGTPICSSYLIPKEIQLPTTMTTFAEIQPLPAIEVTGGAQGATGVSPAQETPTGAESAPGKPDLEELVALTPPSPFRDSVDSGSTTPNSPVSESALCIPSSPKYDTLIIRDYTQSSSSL

[7] = molecular target: Delta-type opioid receptor (Homo sapiens, UniProt P41143); experiment: Late-stage results from the probe development effort to identify antagonists of OPRK1: fluorescence-based cell-based dose response OPRD1 counterscreen.; assay type: functional
Sequence of Delta-type opioid receptor (P41143 whole entry): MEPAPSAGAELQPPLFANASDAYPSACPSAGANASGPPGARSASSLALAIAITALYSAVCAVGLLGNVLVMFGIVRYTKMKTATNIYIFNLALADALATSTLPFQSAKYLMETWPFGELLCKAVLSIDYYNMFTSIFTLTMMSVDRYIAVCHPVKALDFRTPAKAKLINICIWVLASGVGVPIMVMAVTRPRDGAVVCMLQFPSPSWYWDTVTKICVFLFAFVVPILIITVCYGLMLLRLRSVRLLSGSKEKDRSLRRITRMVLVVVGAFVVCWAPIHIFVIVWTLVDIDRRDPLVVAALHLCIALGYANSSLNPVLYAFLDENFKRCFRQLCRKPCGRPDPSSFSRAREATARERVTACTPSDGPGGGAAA

Mu-type opioid receptor = Mu-type opioid receptor (Homo sapiens, UniProt P35372); experiment: Late-stage results from the probe development effort to identify antagonists of OPRK1: luminescence-based cell-based dose response OPRM1 counterscreen.; assay type: functional
Sequence of Mu-type opioid receptor (P35372 whole entry): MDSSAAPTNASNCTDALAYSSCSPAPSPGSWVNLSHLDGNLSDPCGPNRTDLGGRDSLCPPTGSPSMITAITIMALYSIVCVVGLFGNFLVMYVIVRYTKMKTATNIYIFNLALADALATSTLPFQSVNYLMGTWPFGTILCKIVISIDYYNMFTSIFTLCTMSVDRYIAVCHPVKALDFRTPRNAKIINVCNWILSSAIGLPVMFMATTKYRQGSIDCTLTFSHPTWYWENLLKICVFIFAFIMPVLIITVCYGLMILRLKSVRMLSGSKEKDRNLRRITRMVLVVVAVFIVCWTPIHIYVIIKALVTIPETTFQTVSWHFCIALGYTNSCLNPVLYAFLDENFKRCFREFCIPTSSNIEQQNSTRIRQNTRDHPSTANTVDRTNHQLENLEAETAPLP

[8] = molecular target: Sphingosine 1-phosphate receptor 1 (Homo sapiens, UniProt P21453); experiment: Late-stage counterscreen for antagonists of kappa opioid receptor 1 (OPRK1): fluorescence-based cell-based dose response assay to identify antagonists of Sphingosine 1-Phosphate Receptor 1 (S1P1).; assay type: functional
Sequence of Sphingosine 1-phosphate receptor 1 (P21453 whole entry): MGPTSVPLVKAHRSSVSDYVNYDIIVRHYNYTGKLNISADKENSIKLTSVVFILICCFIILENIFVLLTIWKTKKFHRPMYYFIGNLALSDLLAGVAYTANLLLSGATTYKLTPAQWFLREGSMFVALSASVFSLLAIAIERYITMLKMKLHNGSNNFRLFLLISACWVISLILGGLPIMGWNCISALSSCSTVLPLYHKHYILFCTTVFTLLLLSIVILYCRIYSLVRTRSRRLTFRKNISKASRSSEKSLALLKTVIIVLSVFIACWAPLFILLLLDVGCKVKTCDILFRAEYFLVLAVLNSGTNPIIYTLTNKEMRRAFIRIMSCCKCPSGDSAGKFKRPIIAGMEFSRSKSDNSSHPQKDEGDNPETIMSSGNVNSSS

Protein Wnt-3a = Protein Wnt-3a (Mus musculus, UniProt P27467); experiment: SAR analysis of small molecule antagonists of Gli-SUFU in a Wnt3a luminescent reporter assay.; assay type: functional
Sequence of Protein Wnt-3a (P27467 whole entry): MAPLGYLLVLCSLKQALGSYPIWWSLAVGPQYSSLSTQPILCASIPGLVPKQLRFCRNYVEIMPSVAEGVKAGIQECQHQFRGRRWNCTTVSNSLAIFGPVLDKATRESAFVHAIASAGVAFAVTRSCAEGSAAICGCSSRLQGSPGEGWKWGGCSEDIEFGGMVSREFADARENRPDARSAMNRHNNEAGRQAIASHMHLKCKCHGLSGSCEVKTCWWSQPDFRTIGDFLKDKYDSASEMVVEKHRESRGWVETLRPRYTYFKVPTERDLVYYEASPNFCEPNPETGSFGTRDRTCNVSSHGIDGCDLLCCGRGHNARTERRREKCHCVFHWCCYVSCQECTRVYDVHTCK

[9] = molecular target: Endoplasmic reticulum aminopeptidase 1 (Homo sapiens, UniProt Q9NZ08); experiment: ERAP1 aminopeptidase inhibitors, dose response, biochemical, cherry-pick, set 2, plate reader (AID 743314)
Sequence of Endoplasmic reticulum aminopeptidase 1 (Q9NZ08 whole entry): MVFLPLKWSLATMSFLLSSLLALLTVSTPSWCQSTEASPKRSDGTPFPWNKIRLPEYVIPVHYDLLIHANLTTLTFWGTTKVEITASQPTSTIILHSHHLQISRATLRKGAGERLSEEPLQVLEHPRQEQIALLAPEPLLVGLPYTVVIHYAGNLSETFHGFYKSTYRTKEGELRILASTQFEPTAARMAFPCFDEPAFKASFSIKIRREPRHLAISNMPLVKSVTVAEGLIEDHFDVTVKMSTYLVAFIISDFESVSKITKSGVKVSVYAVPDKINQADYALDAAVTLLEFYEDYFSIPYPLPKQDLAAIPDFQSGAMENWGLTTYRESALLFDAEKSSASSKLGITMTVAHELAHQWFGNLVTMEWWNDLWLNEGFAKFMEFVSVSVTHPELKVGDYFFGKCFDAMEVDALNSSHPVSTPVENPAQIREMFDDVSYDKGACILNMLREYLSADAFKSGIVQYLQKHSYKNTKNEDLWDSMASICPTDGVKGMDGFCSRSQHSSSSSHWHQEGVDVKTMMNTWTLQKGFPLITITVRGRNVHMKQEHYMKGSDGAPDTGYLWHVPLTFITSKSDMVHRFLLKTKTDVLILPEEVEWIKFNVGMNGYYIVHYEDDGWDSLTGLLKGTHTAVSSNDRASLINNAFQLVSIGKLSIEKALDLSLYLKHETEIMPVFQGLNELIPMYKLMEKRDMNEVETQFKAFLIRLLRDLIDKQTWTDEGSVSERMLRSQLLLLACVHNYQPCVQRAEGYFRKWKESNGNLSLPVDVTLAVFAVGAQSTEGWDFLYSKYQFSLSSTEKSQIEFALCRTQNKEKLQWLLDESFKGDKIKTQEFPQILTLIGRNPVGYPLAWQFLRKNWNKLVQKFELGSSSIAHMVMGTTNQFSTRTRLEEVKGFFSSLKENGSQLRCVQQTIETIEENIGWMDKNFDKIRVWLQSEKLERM

[10] = MITF: Counter assay: A375 proliferation Measured in Cell-Based System Using Plate Reader - 2084-03_Inhibitor_Dose_DryPowder_Activity_Set8.; assay type: functional; conditions: A-375
[11] = MITF Orthogonal Assay: SK-MEL-5 CTG Assay Measured in Cell-Based System Using Plate Reader - 2084-02_Inhibitor_Dose_DryPowder_Activity_Set7.; assay type: functional
[12] = TRPM1 promoter luciferase reporter signal decrease, dose response, MITF inhibitor project, cell-based, SK-MEL-5, dry powder, set 8 (AID 624430); assay type: functional
Beta-lactamase [13] = molecular target: T1, Beta-lactamase (Pseudomonas aeruginosa, UniProt Q79MP6); experiment: […] counterscreen for selective VIM-2 inhibitors: dose response biochemical high throughput screening assay to identify inhibitors of IMP-1 metallo-beta-lactamase.
T1 sequence (Q79MP6 whole entry): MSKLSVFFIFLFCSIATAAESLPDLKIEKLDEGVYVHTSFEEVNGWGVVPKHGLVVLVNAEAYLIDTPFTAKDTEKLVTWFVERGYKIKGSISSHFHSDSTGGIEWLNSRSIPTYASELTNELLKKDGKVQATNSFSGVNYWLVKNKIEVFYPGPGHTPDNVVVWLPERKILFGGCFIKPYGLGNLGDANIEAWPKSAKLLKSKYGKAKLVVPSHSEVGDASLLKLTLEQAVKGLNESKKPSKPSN

Beta-lactamase [14] = molecular target: Beta-lactamase (Salmonella choleraesuis (strain SC-B67), UniProt Q5J463); experiment: Epi-absorbance-based counterscreen for selective VIM-2 inhibitors: dose response biochemical high throughput screening assay to identify inhibitors of TEM-1 serine-beta-lactamase.
Sequence of Beta-lactamase (Salmonella choleraesuis (strain SC-B67), UniProt Q5J463) (Q5J463 whole entry): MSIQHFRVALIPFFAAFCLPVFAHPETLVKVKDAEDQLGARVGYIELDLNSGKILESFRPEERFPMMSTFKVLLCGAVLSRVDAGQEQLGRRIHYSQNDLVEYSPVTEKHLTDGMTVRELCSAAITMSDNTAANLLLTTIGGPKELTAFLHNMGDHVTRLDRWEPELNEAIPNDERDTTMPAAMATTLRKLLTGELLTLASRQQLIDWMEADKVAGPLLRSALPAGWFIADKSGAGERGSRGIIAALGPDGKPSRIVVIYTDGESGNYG

Beta-lactamase [15] = molecular target: T1, Beta-lactamase; experiment: IMP-1 metallo-beta-lactamase inhibitors, dose response, selectivity assay for VIM-2 inhibitor project, biochemical, epi-absorbance (AID 1920)
Beta Lactamase [16] = molecular target: T2, Beta Lactamase (Pseudomonas aeruginosa, UniProt Q932Y6); experiment: VIM-2 inhibitor FRET-based artefact check, dose response, artefact control for selective VIM-2 inhibitor project, biochemical, FRET readout, CCF2 substrate (AID 1926)
T2 sequence (Q932Y6 whole entry): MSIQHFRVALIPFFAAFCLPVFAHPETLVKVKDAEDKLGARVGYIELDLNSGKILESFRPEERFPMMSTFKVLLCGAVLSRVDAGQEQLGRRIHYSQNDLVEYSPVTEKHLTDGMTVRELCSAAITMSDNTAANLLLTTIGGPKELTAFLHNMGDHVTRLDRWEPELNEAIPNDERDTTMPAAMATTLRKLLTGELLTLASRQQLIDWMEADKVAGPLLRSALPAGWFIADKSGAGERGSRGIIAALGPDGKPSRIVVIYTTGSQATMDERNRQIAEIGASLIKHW

Beta Lactamase [17] = molecular target: T2, Beta Lactamase; experiment: VIM-2 metallo-beta-lactamase inhibitor potency, dose response, biochemical, epi-absorbance readout, selective inhibitors (AID 1919)

Q: Which results are given for `C[C@@H]1CCCCO[C@@H](CN(C)Cc2ccc3c(c2)OCO3)[C@H](C)CN([C@@H](C)CO)C(=O)c2cc(NC(=O)Nc3ccc(C(F)(F)F)cc3)ccc2O1`?
A: AC50 [1]: 15.4 µM (active); AC50 [2]: 63.2 µM (active); AC50 [3]: 30.2 µM (active); AC50 [4]: 34 µM (active); AC50 (Paired box protein Pax-8): 14.5 µM (active)

Q: Which results are given for `O=S(=O)(NC[C@@H]1[C@@H](c2ccccc2)[C@H](CO)N1CC1CC1)c1ccccc1`?
A: AC50 [5]: > 52 µM (inactive); AC50 (HEK293): > 52 µM (inactive)

Q: Which AC50 (A549) does the source give for `Cc1ccccc1S(=O)(=O)N1CC[C@@H]2[C@H](CO)Nc3ccc(-c4cccc(C#N)c4)cc3[C@@H]21` here?
A: Its AC50 is 28.8 µM (active).

Q: For `CS(=O)(=O)N(Cc1nc2ccccc2[nH]1)c1ccccc1Cl`, which EC50 [6] is on record?
A: The EC50 was 2.46 µM.

Q: With `COC(=O)c1cc(Br)cnc1N1CCC(NC2CCCCCC2)CC1` as the compound, how does the IC50 [7] read?
A: The IC50 was 12 µM (inactive).

Q: What about the IC50 (Mu-type opioid receptor) of the same compound?
A: The IC50 was 4.2 µM (active).

Q: For `CCOC(=O)c1cc(C(=O)OC)c(C)nc1N1CCC(NC2CCCCC2O)CC1` (configuration not stated), which IC50 [8] is on record?
A: The IC50 was > 50 µM (inactive).

Q: Which IC50 (Protein Wnt-3a) does the source give for `O=C(Nc1cc(N2CCCCC2)ncn1)c1ccccc1Cl` here?
A: The IC50 was > 21.8 µM (inactive).

Q: For `COC(=O)[C@@H]1[C@@H](CO)[C@@H]2Cn3c(ccc(/C=C/c4ccccc4)c3=O)[C@H]1N2C(=O)C1CCC1`, which AC50 [9] is on record?
A: Its AC50 is 3.47 µM (active).

Q: Which AC50 [10] does the source give for `CN1CCN(C2=C(Nc3ccc(Cl)cc3)C(=O)c3ccccc3C2=O)CC1` here?
A: Its AC50 is 39.3 µM (active).

Q: And the AC50 [11]?
A: The AC50 was 11.6 µM (active).

Q: And the AC50 [12]?
A: The AC50 was 17.4 µM (active).

Q: Which IC50 (Beta-lactamase [13]) does the source give for `CC(=C/c1ccccc1)/C=N/n1c(C)nnc1S` here?
A: Its IC50 is > 59.6 µM (inactive).

Q: And the IC50 (Beta-lactamase [14])?
A: The IC50 was > 59.6 µM (inactive).

Q: And the IC50 (Beta-lactamase [15])?
A: The IC50 was > 59.6 µM (inactive).

Q: What about the IC50 (Beta Lactamase [16]) of the same compound?
A: Its IC50 is 2.5 µM (active).

Q: And the IC50 (Beta Lactamase [17])?
A: The IC50 was 9.98 µM (active).
